# According to US12291529B2, “Heterocyclic GLP-1 agonists” (Gasherbrum Bio, Inc., priority 2023, dated 2025):
# How the values were obtained:
# FaSSIF solubility = assay type: physicochemical; conditions: FaSSIF buffer, 25 °C, fassif, thermodynamic from solid
# Experimental: Stock solution of test article and control compound (chlorpromazine, astemizole, and phenytoin) were prepared in DMSO at 10 mM. 50 μL each of stock solutions were dried down, followed by reconstitution to 1 mM with FaSSIF buffer in the well. The incubation plate was shaked at 25° C., 1,100 rpm for 4 hours. And then, the samples were filtered by using the vacuum manifold. 10 μL aliquots from each well was transferred to a new 96-well plate and adjust the volume to 80 μL with blank buffer. Using a mixture of H2O and acetonitrile containing internal standard (1:1) to dilute the sample 100-fold, 500-fold and 2,500-fold. The samples are evaluated by LC/MS/MS analysis. All compounds were tested in singlet.
# [1] = Caco-2 permeability / efflux study; assay type: in vitro ADME; conditions: human; for Papp at 2 h, 10 μM: Caco-2, pH 7.4, 10 μM, 37° C., pH 7.4, 0.5% BSA, read-out: Caco-2 Perm; for efflux ratio at 2 h, 10 μM: Caco-2, pH 7.4, Caco-2 efflux ratio
# Experimental: Incubations with Caco-2 cell monolayers were performed in duplicate in a 96-well Transwell plate. Transport buffer solution (HBSS, 10 mM HEPES, pH 7.4, with 0.5% BSA) containing test article (10 μM), and either the control compounds metoprolol (10 μM), cimetidine (10 μM) and erythromycin (10 μM), was added to appropriate donor wells of the apical or basolateral plate. The transport buffer with DMSO was added to appropriate wells of receiver wells. Following incubation at 37° C. for 2 hours, the cell plates were removed and 50 μL samples from both apical and basolateral sides were transferred into new 96-well plates. Subsequently, 200 μL of acetonitrile containing internal standard was added to all samples to precipitate protein prior to analysis by UPLC-MS/MS. Lucifer yellow was used as a marker to confirm the integrity of the cell monolayers after 2 hours incubation.
# [2] = Rat IV/PO PK study, Method A; assay type: in vivo, male Sprague Dawley (SD) rats; conditions: for half-life / bioavailability / AUC / Cmax: male, Sprague Dawley, plasma; for half-life: 1 mg/kg, elimination half life (IV); for half-life / bioavailability: Method A; for bioavailability: PO vs IV, read-out: Bioavailablility (% F); for AUC / Cmax / AUC (ng · h/mL)_free form/dose: PO; for AUC / Cmax: *obtained under method 3A; for AUC (ng · h/mL)_free form/dose: 5 mpk, free form
# Experimental: Pharmacokinetics (PK) study was conducted on male Sprague Dawley (SD) rats by two delivery routes intravenous (IV) and/or oral gavage (PO). Rats in IV route (n=3) were free access to food and water. Rats in PO route (n=3) were fasted overnight and fed at 4 hrs post dosing. Test article was formulated in solution (10% solutol HS 15 in saline) for IV route and solution or suspension (10% solutol HS 15 in saline/water) for PO route, respectively. On the day of experiment, test article was administered via vein (e.g. foot dorsal vein) injection (commonly at 1 mg/kg and 5 mL/kg) for IV route or via oral gavage (commonly at 2 or 5 mg/kg and 5 mL/kg) for PO route, respectively. Blood samples were collected via serial bleeding at ˜8 time points from 0.083 to 24 hrs post dose. Approximate 150 μL of blood/time point was collected into K2EDTA tube via tail vein or jugular vein. Blood samples were put on wet ice and centrifuged to obtain plasma samples and plasma samples were submitted to LC-MS/MS for sample analysis. Pharmacokinetics parameters, including elimination half life (t1/2) (IV), area under the curve (AUC) and oral bioavailability (F %), etc. were calculated by non-compartmental model using WinNonlin.
# [3] = Rat PO PK study, Method B; assay type: in vivo, male Sprague Dawley (SD) rats; conditions: for rat PK dose proportionality of exposure: free form, same formulation; for AUC / Cmax: male, Sprague Dawley, plasma, 10% solutol HS 15
# Experimental: Pharmacokinetics (PK) study was conducted on male Sprague Dawley (SD) rats by oral gavage (PO). Rats in PO route (n=3) were free access to food and water. […] On the day of experiment, test article was administered via oral gavage (commonly at 10, 30, or 100 mg/kg, with dose volume as 10 mL/kg). Blood samples were collected via serial bleeding at ˜8 time points from 0.25 to 24 hrs post dose. Approximate 150 μL of blood/time point was collected into KzEDTA tube via tail vein or jugular vein. Blood samples were put on wet ice and centrifuged to obtain plasma samples and plasma samples were submitted to LC-MS/MS for sample analysis. Pharmiacokinetics parameters, including Cmax, and area under the curve (AUC), etc. were calculated by non-compartmental model using WinNonlin.
# GLP-1 Receptor = GLP-1 Receptor (Homo sapiens, UniProt P43220); experiment: GLP-1R agonist cAMP stimulation assay (HEK293/GLP1R/CRE-LUC cells, Cisbio cAMP dynamic 2 kit); assay type: cell-based
# Chain of GLP-1 Receptor (P43220 24-463, species assumed): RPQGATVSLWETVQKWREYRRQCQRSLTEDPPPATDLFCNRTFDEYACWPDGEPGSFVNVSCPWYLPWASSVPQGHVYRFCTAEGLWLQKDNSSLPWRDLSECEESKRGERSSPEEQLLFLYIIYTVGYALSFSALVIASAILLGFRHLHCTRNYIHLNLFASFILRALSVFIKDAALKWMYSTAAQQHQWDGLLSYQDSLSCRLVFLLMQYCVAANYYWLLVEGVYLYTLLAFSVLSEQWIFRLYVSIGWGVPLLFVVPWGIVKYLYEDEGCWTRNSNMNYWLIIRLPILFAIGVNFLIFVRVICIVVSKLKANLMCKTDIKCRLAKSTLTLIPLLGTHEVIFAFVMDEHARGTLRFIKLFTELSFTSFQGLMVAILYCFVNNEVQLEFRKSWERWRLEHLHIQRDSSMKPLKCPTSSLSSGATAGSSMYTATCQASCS
# Summary of the method: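 HEK293 cells stably expressing human GLP-1R with CRE-Luc reporter, 1000 cells/well in DPBS with 0.5 mM IBMX and BSA. Cells treated with compound (½-log dilutions) for 30 min at 37 °C. cAMP read by HTRF at 665/615 nm; % activity relative to vehicle and maximal control.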
# [4] = Table 3, HEK293/GLP1R/CRE-LUC cells, 30 min
SMILES,solubility at 4 h (FaSSIF solubility),"Papp at 2 h, 10 μM [1]","efflux ratio at 2 h, 10 μM [1]",half-life [2],bioavailability [2],EC50 (GLP-1 Receptor; [4]),EC50 (GLP-1 Receptor; Table 4),also measured
"CN=S(=O)(c1ccc(-n2ccn(-c3c4c(nn3-c3cc(C)c(F)c(C)c3)CCN(C(=O)c3cc5cc([C@H]6CCOC(C)(C)C6)ccc5n3[C@@]3(c5noc(=O)[nH]5)C[C@@H]3C)[C@H]4C)c2=O)c(F)c1C)C1CC1 (single isomer, unassigned) [Compound 195]",7.2 µM,0.22 ×10⁻⁶ cm/s,12,4.3 h,14%,0.018 nM,0.018 nM,"AUC (ng · h/mL)_free form/dose [2]: 9,545/5 mpk ng · h/mL; AUC ([2]; 5 mg/kg): 5000 ng·h/mL; Cmax ([2]; 5 mg/kg): 774 ng/mL; rat PK exposure compared with C-5 and C-6 ([3]; 5 to 100 mg/kg): higher exposure than C-5 and C-6; rat PK dose proportionality of exposure [3]: good rat PK dose proportionality from 5 to 100 mg/kg; AUC ([3]; 30 mg/kg): 51100 ng·h/mL; Cmax ([3]; 30 mg/kg): 3910 ng/mL; AUC ([3]; 100 mg/kg): 102000 ng·h/mL; Cmax ([3]; 100 mg/kg): 7690 ng/mL"
"CN=S(C)(=O)c1ccc(-n2ccn(-c3c4c(nn3-c3cc(C)c(F)c(C)c3)CCN(C(=O)c3cc5cc(C6CCOCC6)ccc5n3[C@@]3(c5noc(=O)[nH]5)C[C@@H]3C)[C@H]4C)c2=O)cc1 (single isomer, unassigned) [Compound 121]",7.3 µM,0.1 ×10⁻⁶ cm/s,90.8,–,–,0.019 nM,0.015 nM,–
"CN=S(=O)(c1ccc(-n2ccn(-c3c4c(nn3-c3cc(C)c(F)c(C)c3)CCN(C(=O)c3cc5cc(C6CCOCC6)ccc5n3[C@@]3(c5noc(=O)[nH]5)C[C@@H]3C)[C@H]4C)c2=O)c(F)c1)C1CC1 (single isomer, unassigned) [Compound 221]",4.05 µM,0.34 ×10⁻⁶ cm/s,38.5,–,–,0.03 nM,0.031 nM,–
"CCS(=O)(=NC)c1ccc(-n2ccn(-c3c4c(nn3-c3cc(C)c(F)c(C)c3)CCN(C(=O)c3cc5cc(C6CCOCC6)ccc5n3[C@@]3(c5noc(=O)[nH]5)C[C@@H]3C)[C@H]4C)c2=O)c(F)c1 (single isomer, unassigned) [Compound 149]",2.04 µM,0.33 ×10⁻⁶ cm/s,26,1.6 h,32%,0.023 nM,0.023 nM,"AUC (ng · h/mL)_free form/dose [2]: 4,276/5 mpk ng · h/mL"
"CN=S(=O)(c1ccc(-n2ccn(-c3c4c(nn3-c3cc(C)c(F)c(C)c3)CCN(C(=O)c3cc5cc([C@H]6CCOC(C)(C)C6)ccc5n3[C@@]3(c5noc(=O)[nH]5)C[C@@H]3C)[C@H]4C)c2=O)c(F)c1Cl)C1CC1 (single isomer, unassigned) [Compound 214]",9.9 µM,0.34 ×10⁻⁶ cm/s,11.4,–,–,0.033 nM,0.033 nM,–
"Cc1cc(-n2nc3c(c2-n2ccn(-c4ccc(S(=N)(=O)C5CC5)cc4F)c2=O)[C@H](C)N(C(=O)c2cc4cc([C@H]5CCOC(C)(C)C5)ccc4n2[C@@]2(c4noc(=O)[nH]4)C[C@@H]2C)CC3)cc(C)c1F (single isomer, unassigned) [Compound 181]",–,0.24 ×10⁻⁶ cm/s,38,1.66 h,30%,0.018 nM,0.014 nM,"AUC (ng · h/mL)_free form/dose [2]: 6,097/5 mpk ng · h/mL"
"CCS(=O)(=NC)c1ccc(-n2ccn(-c3c4c(nn3-c3cc(C)c(F)c(C)c3)CCN(C(=O)c3cc5cc(C6CCOCC6)ccc5n3[C@@]3(c5noc(=O)[nH]5)C[C@@H]3C)[C@H]4C)c2=O)cc1 (single isomer, unassigned) [Compound 144]",2.56 µM,0.36 ×10⁻⁶ cm/s,24.1,–,–,0.017 nM,0.017 nM,–
"CCS(=O)(=NC)c1ccc(-n2ccn(-c3c4c(nn3-c3cc(C)c(F)c(C)c3)CCN(C(=O)c3cc5cc([C@H]6CCOC(C)(C)C6)ccc5n3[C@@]3(c5noc(=O)[nH]5)C[C@@H]3C)[C@H]4C)c2=O)c(F)c1C (single isomer, unassigned) [Compound 216]",7.9 µM,0.32 ×10⁻⁶ cm/s,15.7,–,–,0.065 nM,0.068 nM,–

# More lines, main results first:
solubility at 4 h (FaSSIF solubility),"Papp at 2 h, 10 μM [1]","efflux ratio at 2 h, 10 μM [1]",half-life [2],bioavailability [2],EC50 (GLP-1 Receptor; [4]),EC50 (GLP-1 Receptor; Table 4),SMILES,also measured
6.45 µM,0.05 ×10⁻⁶ cm/s,78.1,–,–,–,–,"CNS(=O)(=O)c1ccc(-n2ccn(-c3c4c(nn3-c3cc(C)c(F)c(C)c3)CCN(C(=O)c3cc5cc(C6CCOCC6)ccc5n3[C@@]3(c5noc(=O)[nH]5)C[C@@H]3C)[C@H]4C)c2=O)cc1 [Compound C-3, reference compound]",–
0.4 µM,0.21 ×10⁻⁶ cm/s,–,8.1 h,36%,–,–,"Cc1cc(-n2nc3c(c2-n2ccn(-c4ccc5c(cnn5C)c4F)c2=O)[C@H](C)N(C(=O)c2cc4cc([C@H]5CCOC(C)(C)C5)ccc4n2[C@@]2(c4noc(=O)[nH]4)C[C@@H]2C)CC3)cc(C)c1F [Compound C-5, reference compound]",AUC ([2]; 2 mg/kg): 4400 ng·h/mL; Cmax ([2]; 2 mg/kg): 573 ng/mL; rat PK dose proportionality of exposure [3]: plateaued at 10 mg/kg; AUC ([3]; 10 mg/kg): 14500 ng·h/mL; Cmax ([3]; 10 mg/kg): 1250 ng/mL; AUC ([3]; 30 mg/kg): 13000 ng·h/mL; Cmax ([3]; 30 mg/kg): 1010 ng/mL
9.3 µM,< 0.05 ×10⁻⁶ cm/s,> 62.6,–,–,–,0.043 nM,"Cc1cc(-n2nc3c(c2-n2ccn(-c4ccc(S(=O)(=O)C5CC5)cc4)c2=O)[C@H](C)N(C(=O)c2cc4cc(C5CCOCC5)ccc4n2[C@@]2(c4noc(=O)[nH]4)C[C@@H]2C)CC3)cc(C)c1F [Compound C-2, reference compound]",–
4 µM,0.126 ×10⁻⁶ cm/s,51.7,–,–,–,0.022 nM,"CCS(=O)(=O)c1ccc(-n2ccn(-c3c4c(nn3-c3cc(C)c(F)c(C)c3)CCN(C(=O)c3cc5cc(C6CCOCC6)ccc5n3[C@@]3(c5noc(=O)[nH]5)C[C@@H]3C)[C@H]4C)c2=O)cc1 [Compound C-1, reference compound]",–
5.38 µM,0.18 ×10⁻⁶ cm/s,16.7,–,–,–,0.14 nM,"Cc1cc(-n2nc3c(c2-n2ccn(-c4ccc(N5CCCS5(=O)=O)cc4)c2=O)[C@H](C)N(C(=O)c2cc4cc(C5CCOCC5)ccc4n2[C@@]2(c4noc(=O)[nH]4)C[C@@H]2C)CC3)cc(C)c1F [Compound C-4, reference compound]",–
